± gives the expanded uncertainty stated by the source.
How the values were obtained:
[1] = Liquid; for mass density: 101.33 kPa
[2] = excess molar enthalpy (molar enthalpy of mixing); xn = mol fraction of the nth substance listed; conditions: 413.15 K, 1620 kPa, Liquid, Flow calorimetry

CCC(N)=O [propanamide]
[1]
Conditions | mass density [kg/m3] | vapor or sublimation pressure [kPa]
355.65 K | 963.2 ± 0.3 | –
358.15 K | 961.2 ± 0.3 | –
363.15 K | 957.2 ± 0.3 | –
375.45 K | – | 0.97 ± 0.08
384.15 K | – | 1.53 ± 0.08
394.15 K | – | 2.52 ± 0.08
403.65 K | – | 4.02 ± 0.08
414.05 K | – | 6.4 ± 0.09
427.65 K | – | 11.22 ± 0.09
443.85 K | – | 21.16 ± 0.11
455.55 K | – | 31.04 ± 0.12
462.95 K | – | 40.87 ± 0.14
469.05 K | – | 50.69 ± 0.15
475.85 K | – | 60.86 ± 0.16

CCC(N)=O [propanamide] + CCCCCCCCCCC
[2]
Conditions | excess molar enthalpy [kcal/mol]
x2 = 0.0092 | 0.0332 ± 0.0012
x2 = 0.0284 | 0.0576 ± 0.0012
x2 = 0.049 | 0.0607 ± 0.0012
x2 = 0.1074 | 0.0669 ± 0.0012
x2 = 0.7646 | 0.133 ± 0.00143
x2 = 0.9337 | 0.15 ± 0.00167
x2 = 0.9661 | 0.154 ± 0.00167

Reference: the NIST ThermoML archive (doi:10.1021/je034255e)
